Consider two compounds from patent US20260297134A1, “CYCLIC PEPTIDES AS PET IMAGING AGENTS OF GRANZYME B” (Merck Sharp & Dohme LLC, priority 2023, published 2026).

A short description of data set [1]: Dynamic PET/CT scan in healthy rhesus monkey, biodistribution and clearance. The note with it: i.v. The data set is classed as in vivo, male rhesus monkey. As to the method:
Healthy non-human primate: A 3 h dynamic PET/CT scan was performed in a healthy male rhesus monkey to determine whole body biodistribution and clearance properties in an additional species. Approximately 6 mCi of ^18F-labeled anti-granzyme-B peptide was intravenously injected in the animal. Attenuation correction was performed using low-dose CT scan. Regions of interests (ROI) were manually drawn over tissues of interest to determine mean standardized uptake value (SUVmean).

Another data set concerns the target Human granzyme B (Homo sapiens, UniProt P10144). The data set is described as follows: Granzyme B Biochemical Inhibition Assay. Particulars: granzyme B 8 nM; 30 min preincubation, room temperature. As for the experimental part:
Compounds to be tested as inhibitors were manually prepared in a 2-fold serial dilutions in DMSO, spanning 200 μM to 0.39 μM in a Labcyte Echo qualified low dead volume 384-well plate. Then an ECHO acoustic liquid handler was used to dispense 125 nL of each compound from 384-well plate into a PerkinElmer Proxiplate-384 Plus F assay plate. For the positive control of inhibitor, (S)-3-((3S,6S)-3-((2S,3S)-2-acetamido-3-methylpentanamido)-4-oxo-1,2,3,4,6,7-hexahydroazepino[3,2,1-hi]indole-6-carboxamido)-4-oxobutanoic acid (see C. A. Willoughby et al./Bioorg. Med. Chem. Lett. 12 (2002) 2197-2200 2199) was used at 2 μM assay concentration. For no inhibition control, DMSO was used. Each compound was run in duplicate.
Once the compounds were dispensed in the plates, enzyme mix and substrate mix were prepared. […] Subsequently, 3.125 μL of substrate mix were added to each well using the BioRaptr, reaching a final assay volume of 12.5 μL. and the plate was monitored using a Pherastar FS by 1 read per minute for 30 minutes in fluorescence mode, excitation wavelength is 400 nm and emission wavelength is 510 nm.
The data analysis was performed first in excel, where the slopes of the measured fluorescence from each sample were determined using MARS software from BMG LABTECH. […]

In data set [2] the target is human Granzyme B (hGranzyme B) (Homo sapiens, UniProt P10144). Put plainly: Surface Plasmon Resonance (SPR) binding to human Granzyme B. The note with it: Table 8, 25° C. As for the experimental part: All reagents and solvents were purchased from commercial sources and used “as is” unless otherwise noted. Reaction progress and synthetic intermediate analysis were assessed by LCMS (UV detection with ESI, APCI, or other mass detection) when applicable using a MeCN/water gradient with either TFA, formic acid, or NH4HCO3 modifier. Silica gel and reverse-phase flash column chromatography were conducted with commercially available pre-packed columns. Reverse-phase preparative HPLC purification was performed on preparative HPLC instruments with UV and MS detection using a MeCN/water gradient with either TFA, formic acid, or NH4OH modifier. Unless otherwise noted, all KD data presented in tables refers to the surface plasmon resonance assay that is described in the Biological Assay section.
The kinetics of test peptide binding to human Granzyme B (hGranzyme B) was determined by SPR. All experiments were performed at 25° C. using the Biacore 8k+ instrument (Cytiva, Marlborough, MA). The Biacore 8k+ Insight Evaluation Software Version 3.0 was used to fit the data with a 1:1 binding model to determine the association rate constant ka (M^−1s^−1, where “M” equals molar and “s” equals seconds) and the dissociation rate constant kd (s^−1). These rate constants were used to calculate the equilibrium dissociation constant, KD (M)=kd/ka. To measure the binding kinetics of peptides of interest, surfaces were prepared by a capture method to a Series S Streptavidin (SA) chip using a 1×HBS-EP+ running buffer (Cytiva). hGranzyme B was diluted to 10 μg/mL in 1×HBS-EP+ and flowed over spot 2 of each flow cell on the chip at a flow rate of 10 μl/min for 20 s to achieve a level of capture of ~1100 RU. An unmodified spot 1 of each flow cell was used as a matrix binding control or reference surface. Binding kinetics were measured using single cycle kinetics at 25° C. by injecting 5 concentrations with 3-fold serial dilutions of test peptides from […] to 1 μM. Compound dilutions were performed manually in a running buffer containing 1×HBS-EP+(Cytiva), and a final concentration of 2% DMSO. The interaction analyses over hGranzyme B, were performed using a 120 s association time and a 900 s dissociation time. All experiments were conducted at a flow rate of […] with a data collection rate of 10 Hz.
Peptide dilution series included 2 zero concentration points (no compound) which were averaged and subtracted from the peptide concentration injection as DMSO control responses. Binding data acquired from the reference surface (matrix binding control) were subtracted from the binding data for hGranzyme B surface on the chip to determine specific binding. Next, the association phase data were solvent corrected to account for any signal fluctuation throughout the experiment due to subtle DMSO concentration differences. Corrected response data were analyzed using the Biacore 8k+ Evaluation Software Version 3.0 according to the manufacturer. SPR data for representative compounds of the disclosure are found in Table 8.

SMILES strings stand for the structures. Bridge positions count the residues as written; N and C are the ends. Square brackets hold non-standard residues; d marks the D form. Peptide text beside a SMILES is read from it. * marks the point of attachment. X1 = O=C(O)CN1CCN(CC(=O)O)CC(Cc2ccc(NC(=S)*)cc2)N(CC(=O)O)CC1; NMeF = CN[C@@H](Cc1ccccc1)C(=O)O

As a reminder, the IC50 is the midpoint of a concentration-inhibition curve. Low values mean greater potency in that assay, high ones weaker potency in that assay. The Kd is a measure of binding affinity in units of concentration. A higher Kd goes with a looser complex.

Chain of human Granzyme B (hGranzyme B) (P10144 21-247): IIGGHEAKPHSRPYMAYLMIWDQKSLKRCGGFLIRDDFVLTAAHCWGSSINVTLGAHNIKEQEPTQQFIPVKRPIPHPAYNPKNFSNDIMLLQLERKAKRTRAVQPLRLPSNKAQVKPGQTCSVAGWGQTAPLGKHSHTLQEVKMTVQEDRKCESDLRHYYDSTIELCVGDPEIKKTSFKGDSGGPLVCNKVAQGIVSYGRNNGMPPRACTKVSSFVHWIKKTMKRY
Chain of Human granzyme B (P10144 21-247): as above

Take `CC(C)[C@@H]1NC(=O)[C@H](CC(=O)O)NC(=O)[C@H](Cc2ccc(O)cc2)NC(=O)[C@H](Cc2ccc(O)cc2)NC(=O)[C@H](Cc2ccccc2)N(C)C(=O)[C@H](Cc2ccccc2)N(C)C(=O)[C@H](Cc2ccccc2)NC(=O)CSC[C@@H](C(=O)NCC(=O)NCC(=O)N[C@@H](CCCCNC(=S)Nc2ccc(CC3CN(CC(=O)O)CCN(CC(=O)O)CCN3CC(=O)O)cc2)C(N)=O)NC(=O)[C@H](Cc2c[nH]cn2)NC(=O)[C@H](Cc2ccccc2)N(C)C(=O)[C@H](Cc2ccc(O)cc2)NC(=O)[C@H](C(C)C)NC(=O)[C@H](CC(=O)O)NC(=O)[C@H](C(C)C)NC(=O)[C@H](CC(=O)O)NC1=O` (stereo partly drawn) [Compound 6a, *F.NMeF.NMeF.Y.Y.D.V.D.V.D.V.Y.NMeF.H.*C.G.G.K(^18F-AlF-NOTA)-NH2] ({CH2CO}-F[NMeF][NMeF]YYDVDVDVY[NMeF]HCGGK(X1)-NH2; thioether N-15): the excretion route result in data set [1] (PET images) is “primarily excreted through renal route”. Further, in data set [1] (approximately 6 mCi, PET), the blood pool clearance entry is given as “rapid blood pool clearance”. For the same compound, the liver uptake duration entry in data set [1] (quantitative analyses of PET images) is on record as “prolonged liver uptake”. Moreover, in data set [1] (within first 20 minutes of injection), the “uptake in liver and kidneys” value was “high uptake in liver and kidneys within first 20 minutes of injection”.

As to `CC(C)[C@@H]1NC(=O)[C@H](CC(=O)O)NC(=O)[C@H](Cc2ccc(O)cc2)NC(=O)[C@H](Cc2ccc(O)cc2)NC(=O)[C@H](Cc2ccccc2)N(C)C(=O)[C@H](Cc2ccccc2)N(C)C(=O)[C@H](Cc2ccccc2)NC(=O)CSC[C@@H](C(=O)NCC(N)=O)NC(=O)[C@H](Cc2c[nH]cn2)NC(=O)[C@H](Cc2ccccc2)N(C)C(=O)[C@H](Cc2ccc(O)cc2)NC(=O)[C@H](C(C)C)NC(=O)[C@H](CC(=O)O)NC(=O)[C@H](C(C)C)NC(=O)[C@H](CC(=O)O)NC1=O` [Compound 1a, *F.NMeF.NMeF.Y.Y.D.V.D.V.D.V.Y.NMeF.H.*C.G-NH2] ({CH2CO}-F[NMeF][NMeF]YYDVDVDVY[NMeF]HCG-NH2; thioether N-15), half-maximal inhibition on Human granzyme B (IC50) was put at 113 nM. The compound further yielded a dissociation constant (Kd) in data set [2] of 0.5 nM.
